Measured values as given in patent publication US20220402883A1, “COMPOUNDS AND METHODS FOR MODULATING RNA FUNCTION” (Arrakis Therapeutics, Inc., priority 2016, published 2022).
Entries after “also recorded” stand apart in the source; their conditions may differ.

Key:
[1] = tested on: Split3WJ.1_up_5IB+Split3WJ.1_down_3FAM (trans 3WJ as 1:1 mix); test: Fluorescence quenching binding assay (FAM / Iowa Black); settings: two concentration points
Description: (§1) This assay will be used to test binding of compounds for RNA three way junction (such as a 38 nt construct). This is a fluorescence quenching assay utilizing FAM as fluorescence tag and Iowa Black as quencher. Tags are attached at the 3′ and 5′ end, respectively. Stable formation of MW upon compound binding would lead to quenching of the FAM fluorescence due to close proximity of the Iowa Black tag. Assay readout: FAM (485-520 nm) Fluorescence Intensity.
(§2) Assay sample buffer used: 10 mM CacoK pH 7.2, 30 mM NaCl. Buffer preparation in Dnase/Rnase Free distilled water (Gibco Life Technologies).
(§3) Dilute the RNA 1:10 (final 10 μM) in Assay Buffer.
(§4) Heat up the diluted RNA up to 90° C. for 5 min (sealed Eppendorf Tube).
(§5) Cool down the RNA probe slowly to RT.
(§6) Dilute the compounds to 800 μM in DMSO (Assay: 8 μM).
(§7) Final concentrations in the sample: 1-10 μM RNA, 8 μM compound, 1% DMSO
(§8) Pipet 25 μL Sample Solution into Greiner cat #784076, black, 384
(§9) Measure the 96 plate with the LightCycler480 (Channel: 485/520 nm).
(§10) The fluorescence quenching experiment was repeated for compounds Ark0000013 and Ark0000014 to measure binding with:
B) Split3WJ.1_up_5IB+Split3WJ.1_down_3FAM (trans 3WJ as 1:1 mix)
(§11) Both cmpds were tested at two concentration points in the fluorescence quenching assays to assess effect upon RNA constructs utilized in the study. […]

[2] = tested on: Split3WJ.2 up_5IB+Split3WJ.2_down_3FAM (trans 3WJ as 1:1 mix); test: as above; settings: two concentration points
Description: as §1, §2, §3, §4, §5, §6, §7, §8, §9, §10
C) Split3WJ.2 up_5IB+Split3WJ.2_down_3FAM (trans 3WJ as 1:1 mix)
as §11

[3] = tested on: RNA3WJ_1.0.0_5IB_3FAM (cis 3WJ with one unpaired nucleotide); test: Thermal shift binding assay; settings: 1 μM RNA, 8 μM compound
Text: (§12) Purpose: Test binding of compounds for RNA three way junction (for example, a construct of 38 nt). Thermal shift assay based on established fluorescence quenching assay utilizing FAM as fluorescence tag and Iowa Black as quencher. Tags were attached at the 3′ and 5′ end, respectively. Stable formation of 3WJ upon compound binding would lead to quenching of the FAM fluorescence due to close proximity of the Iowa Black tag. Thermal unfolding leads to increase of fluorescence emission. Assay readout: FAM (465-510 nm) Thermal Shift.
as §2, §3, §4, §5, §6
(§13) Final concentrations in the sample: 1 μM RNA, 8 μM compound, 1% DMSO
(§14) Pipet 20 μL Sample Solution into Roche, Light Cycler480 Multiwell Plate96, white, REF 04729692001.
(§15) Measure the 96 plate with the LightCycler480 (Channel: 480/510 nm; Temperature: 41-91° C.).
(§16) Analyse measurement-data with the MeltingCurveGenotyping Mode.
(§17) Settings: Acquisition mode: continuous; Ramp rate: 0.1° C./sec; Acquisition: 6° C.
(§18) Curves are fitted with raw and normalized data.
(§19) Melting curves analysis show melting temperature (Tm) of ˜51° C. Range of RNA concentrations was tested and assay window was determined (conc. range of 0.5-1 μM yields best results). The choice of buffer also affected the Tm. RNA constructs were tested under different buffer conditions (especially in presence of salt) in the thermal shift assay. […] CacoK with 30 mM salt at 1 μM RNA conc. was used to assess compound effects on 3WJ stability. […] These conditions were used for screening test compounds.
(§20) Compounds Ark0000013 and Ark0000014 were also tested in the thermal shift assay against three RNA 3WJ constructs, A) RNA3WJ_1.0.0_5IB_3FAM (cis 3WJ with one unpaired nucleotide); B) Split3WJ.1_up_5IB+Split3WJ.1_down_3FAM (trans 3WJ as 1:1 mix); and C) Split3WJ.2_up_5IB+Split3WJ.2_down_3FAM (trans 3WJ as 1:1 mix).

[4] = tested on: Split3WJ.1_up_5IB+Split3WJ.1_down_3FAM (trans 3WJ as 1:1 mix; Split3WJ_1); test: Thermal shift binding assay; settings: 1 μM RNA, 8 μM compound, 10 mM CacoK pH 7.2, 30 mM NaCl
Text: as §12, §2, §3, §4, §5, §6, §13, §14, §15, §16, §17, §18, §19, §20

[5] = tested on: Split3WJ.2_up_5IB+Split3WJ.2_down_3FAM (trans 3WJ as 1:1 mix; Split3WJ_2); test: Thermal shift binding assay; settings: 1 μM RNA, 8 μM compound, 10 mM CacoK pH 7.2, 30 mM NaCl
Text: as §12, §2, §3, §4, §5, §6, §13, §14, §15, §16, §17, §18, §19, §20

RNA3WJ_1.1.0_5IB_3FAM = test: Thermal shift binding assay; settings: 1 μM RNA, 8 μM compound, 10 mM CacoK pH 7.2, 30 mM NaCl
Text: as §12, §2, §3, §4, §5, §6, §13, §14, §15, §16, §17, §18, §19

RNA3WJ_1.1.1_5IB_3FAM = test: Thermal shift binding assay; settings: 1 μM RNA, 8 μM compound, 10 mM CacoK pH 7.2, 30 mM NaCl
Text: as §12, §2, §3, §4, §5, §6, §13, §14, §15, §16, §17, §18, §19

RNA3WJ_2.0.0_5IB_3FAM = test: Thermal shift binding assay; settings: 1 μM RNA, 8 μM compound, 10 mM CacoK pH 7.2, 30 mM NaCl
Text: as §12, §2, §3, §4, §5, §6, §13, §14, §15, §16, §17, §18, §19

RNA3WJ_2.1.0_5IB_3FAM = test: Thermal shift binding assay; settings: 1 μM RNA, 8 μM compound, 10 mM CacoK pH 7.2, 30 mM NaCl
Text: as §12, §2, §3, §4, §5, §6, §13, §14, §15, §16, §17, §18, §19

- Melting temp + cmpd ([3]; 10 mM CacoK pH 7.2, 30 mM NaCl): 87.0 °C
- Temp. Shift ([3]; 10 mM CacoK pH 7.2, 30 mM NaCl): 21.4 °C
- Melting temp + cmpd [4]: 58.2 °C
- Temp. Shift [4]: ~21 °C
- Temp. Shift ([4]; listed as Ark0000013): 20.4 °C
- Melting temp + cmpd [5]: 56.9 °C
- Temp. Shift [5]: ~13 °C
- Temp. Shift ([5]; listed as Ark0000013): 12.2 °C
- Melting temp + cmpd (RNA3WJ_1.1.0_5IB_3FAM): 85.5 °C
- Temp. Shift (RNA3WJ_1.1.0_5IB_3FAM): 22.2 °C
- Melting temp + cmpd (RNA3WJ_1.1.1_5IB_3FAM): 82.9 °C
- Temp. Shift (RNA3WJ_1.1.1_5IB_3FAM): 20.7 °C
- Melting temp + cmpd (RNA3WJ_2.0.0_5IB_3FAM): 84.3 °C
- Temp. Shift (RNA3WJ_2.0.0_5IB_3FAM): 22.1 °C
- Melting temp + cmpd (RNA3WJ_2.1.0_5IB_3FAM): 45.7 °C
- Temp. Shift (RNA3WJ_2.1.0_5IB_3FAM): 3.8 °C
SMILES: CN(CCCN)CCCNC(=O)c1ccc2c(c1)C1c3cc(C(=O)NCCCN(C)CCCN)ccc3C2c2ccc(C(=O)NCCCN(C)CCCN)cc21 [Ark000013, N^2,N^7,N^15-tris(3-((3-aminopropyl)(methyl)amino)propyl)-9,10-dihydro-9,10-[1,2]benzenoanthracene-2,7,15-tricarboxamide]
- fluorescence quenching effect (FAM fluorescence signal) [1]: significant concentration dependent effect
- fluorescence quenching effect (FAM fluorescence signal) [2]: significant concentration dependent effect
- effect in the melting curves (in words) [3]: significantly lower fluorescence signal; also recorded: no proper melting curve
